Data: patent US8865206B1, “Surface modified multilayered nanostructures for dermal delivery” (Florida A&M University, priority 2010, dated 2014)

How the values were obtained:
Type in all cases: physicochemical
[1] = Entrapment efficiency using vivaspin columns; settings: in NPS; unaffected by surface modification
Protocol: The NPS and NPS-OA (0.5 ml) were placed on top of the vivaspin centrifuge filter membrane and centrifuged at 4,500 rpm for fifteen (15) minutes. The amount of SP and KP present in the aqueous phase was estimated using HPLC.

[2] = Solubility test in selected receiver fluids
[3] = In vitro drug release through porous membrane, Franz diffusion cells; settings: within 24 hours of NPS application; 0.5% w/v Volpo in PBS (pH 7.4), 32° C.
Protocol: In vitro drug release studies of KP-NPS, SP-NPS, SP+KP-NPS, KP-NPS-OA, SP-NPS-OA and SP+KP-NPS-OA were performed to investigate the amount of drug released from NPS or NPS-OA. A porous membrane of MWCO at 50,000 Da (SIGMA-ALDRICH Co., St. Louis, Mo.) was used. The membrane was mounted between the donor and receiver compartments of Franz diffusion cells (N. Ghouchi Eskandar, S. Simovic, C. Prestidge, Nanoparticle coated submicron emulsions: sustained in-vitro release and improved dermal delivery of All-trans-retinol, Pharm Res, 26 (2009) 1764-1775).
The NPS dispersion was applied evenly on the surface of the membrane in the donor compartment. […] At predetermined time intervals (e.g., 1, 2, 4, 6, 8, 12, 22, 24, 48 and 72 hours), 0.5 ml samples were collected from the receiver compartment and replaced with fresh buffer solution. The samples collected from receiver compartment were analyzed for drug content using the HPLC method.

Row | Compound | entrapment efficiency [1] | solubility ([2]; 0.1% w/v Volpo 20 in PBS (pH 7.4), 1 mg/ml) | solubility ([2]; 0.5% w/v Volpo 20 in PBS (pH 7.4), 1 mg/ml) | solubility ([2]; 5% w/v BSA in PBS (pH 7.4)) | solubility ([2]; SP and KP mixed together in PBS (pH 7.4) containing 10% w/v ethanol) | solubility ([2]; ethanol) | release of drug from NPS [3] [%]
1 | Spantide II | 92.81%±2.17 | insoluble | soluble | soluble | precipitation was observed | soluble | 34
2 | CC(C(=O)O)c1cccc(C(=O)c2ccccc2)c1 (centres unmarked) [KP, Ketoprofen] |  |  |  |  |  |  | > 75
